Experiments:
Format in all cases: physicochemical
[1] = Moisture uptake of Compound I amorphous material at room temperature under controlled relative humidity
Description: (§1) Other benefits that crystalline Form I offers include but are not limited to purification and isolation of the crystalline form with respect to the solution and facilitation of storage and handling during the formulation development and manufacturing of drug product.

[2] = Dynamic vapor sorption of Compound I crystalline Form I
Description: as §1

[3] = Form stability on extended exposure to water (water slurry, XRPD); details: slurried in water, 2 week sample, XRPD (FIG. 6)
Protocol: Approximately 15-50 mg of Compound I are weighed and transferred to each of fifteen vials each equipped with a mini magnetic stir bar. The starting material used for this experiment is an amorphous solid based on the X-ray powder diffraction (XRPD) pattern (See FIG. 1). To each vial is added 1 mL of various solvents. The slurries are allowed to stir for two weeks at room temperature (˜22° C.). XRPD characterization of the excess solids were performed at ˜1 week and ˜2 week time points. A sample of 300 μL of the suspension is removed from each vial, transferred to a centrifuge filter (Costar, 0.45 micron) and centrifuged at 1000 rpm for 2 minutes. Solids in the wet cake form are analyzed using XRPD analysis (PANalytical X'Pert PRO X-ray powder diffractometer). This diffractometer uses Cu-Ka radiation and it operates under reflection mode. Scan range is from 2 to 40 degree 2 theta. After air drying the small sample, (XRPD) analysis is performed again to monitor any change in the diffraction pattern between the wet and dry material. TGA is run on the saturated solution to determine the solubility of the equilibrating solids in the solvent. […]

## CCOP(=O)(COc1ccc(CC(NC(=O)OC2CO[C@H]3OCC[C@@H]23)[C@H](O)CN(CC(C)C)S(=O)(=O)c2ccc(OC)cc2)cc1)OCC (stereo partly drawn) [Compound I amorphous material]
[1]; 75% Relative Humidity
  Weight gain after 5 days: 0.6%
  Weight gain after 11 days: 1.0%
[1]; 97% Relative Humidity
  Weight gain after 5 days: 3.8%

## CCOP(=O)(COc1ccc(CC(NC(=O)OC2CO[C@H]3OCC[C@@H]23)[C@H](O)CN(CC(C)C)S(=O)(=O)c2ccc(OC)cc2)cc1)OCC (stereo partly drawn) [Form I]
[2]
  hygroscopicity: not hygroscopic
[2]; 90% relative humidity
  water absorbed: 0.4%
[3]
  solid form after extended exposure to water: remains as the same form

From patent publication US20120232038A1, “CRYSTALLINE FORMS OF (3R, 3AS, 6AR) - HEXAHYDROFURO [2,3-B] FURAN-3-YL (1S,2R) - (1-{4-[ (DIETHOXYPHOSPHORYL) METHOXY] PHENY1}-3-HYDROXY-4- [4-METHOXY-N- (2-METHYLPROPYL) BENZENESUL - FONAMIDO] BUTAN-2-YL) CARBAMATE” (Gilead Sciences, Inc., priority 2009, published 2012)
